Consider 21 compounds from publication PMC6976901 (Toxicology Reports, 2020).

For series [1] the following is noted: fraction absorbed, oral; cited from earlier work.
A further series has as its system liver (hepatotoxicity). As to conditions: cited from earlier work.
Another series is described as follows: in vitro. Particulars: human, Caco-2.
In series [2] the test system is human intestinal epithelial Caco-2 cell monolayer. Particulars: apical pH 6.0 to basal pH 7.4, mean ± SD of triplicate; for observed Papp: Table 2 secondary set; for Papp: Table 1 primary set.
[3] abbreviates: Table 2, Hazard Evaluation Support System Integrated Platform.

Where two headings read alike, the source gives them in different places. Marks after values point to notes of the source that are not given here.

Consider `CC(=O)Nc1ccc(O)cc1` [acetaminophen, reference compound], for which, in series [1], the “reported human Fa” value is 100 [23] %. For the same compound, the “hepatic NOEL” value in the series on liver (hepatotoxicity) (Table 2) was 250 [11] mg/kg/day. Besides, the Papp in “in vitro” was 31.9 ± 1.4 ×10⁻⁶ cm/s.

For `CNCC[C@@H](Oc1ccccc1C)c1ccccc1` [atomoxetine, reference compound], in series [1], the “reported human Fa” value is 100 [8] %. In addition, the Papp in “in vitro” worked out at 2.7 ± 0.1 ×10⁻⁶ cm/s.

On to `Oc1ccc(Cc2ccc(O)cc2)cc1` [bisphenol F], for which the “hepatic NOEL” value in the series on liver (hepatotoxicity) (setting [3]) was 100 mg/kg/day. Moreover, the “observed Papp” value in series [2] was determined as 41.5 ± 2.1 ×10⁻⁶ cm/s.

Regarding `CN/C(=N/CCSCc1nc[nH]c1C)NC#N` [cimetidine, reference compound], in series [1], the “reported human Fa” value was 68 [7] %. The same compound displayed a Papp in “in vitro” of 1.7 ± 0.2 ×10⁻⁶ cm/s.

Regarding `CN1C(=O)CC[C@H]1c1cccnc1` [cotinine], the “reported human Fa” value in series [1] was 90 [8] %. Besides, in the series “in vitro”, the apparent permeability (Papp) was 41.2 ± 2.9 ×10⁻⁶ cm/s.

Turning to `C[C@@H]1C[C@H]2[C@@H]3CCC4=CC(=O)C=C[C@]4(C)[C@@]3(F)[C@@H](O)C[C@]2(C)[C@@]1(O)C(=O)CO` [dexamethasone, reference compound], the “reported human Fa” value in series [1] was 90 [8] %. In the series “in vitro”, this compound had an apparent permeability (Papp) of 9.5 ± 1.4 ×10⁻⁶ cm/s.

In the case of `O=C(O)Cc1ccccc1Nc1c(Cl)cccc1Cl` [diclofenac, reference compound], the “reported human Fa” value in series [1] is 82 [25] %. The Papp in “in vitro” was determined as 75.6 ± 0.6 ×10⁻⁶ cm/s.

Turning to `CC(C)N(CCC(C(N)=O)(c1ccccc1)c1ccccn1)C(C)C` (centres unmarked) [disopyramide, reference compound], in series [1], the “reported human Fa” value was 83 [7] %. This compound also came in with an apparent permeability (Papp) in “in vitro” of 1.4 ± 0.3 ×10⁻⁶ cm/s.

On to `N#Cc1cccc(C#N)c1` [isophthalonitrile], for which the “hepatic NOEL” value in the series on liver (hepatotoxicity) (Table 1, Hazard Evaluation Support System Integrated Platform) was 8 mg/kg/day. Moreover, the Papp in series [2] was 805 ± 8 ^a nm/s.

As to `Nc1cccc2c1CN(C1CCC(=O)NC1=O)C2=O` (centres unmarked) [lenalidomide, reference compound], the “reported human Fa” value in series [1] is 90 [26] %. In “in vitro”, this compound returned a Papp of 0.7 ± 0.1 ×10⁻⁶ cm/s.

On to `CC[C@H](C)C(=O)O[C@H]1C[C@@H](C)C=C2C=C[C@H](C)[C@H](CC[C@@H]3C[C@@H](O)CC(=O)O3)[C@H]21` [lovastatin, reference compound], for which the “reported human Fa” value in series [1] was 31 [7] %. The Papp in the series “in vitro” is 2.1 ± 0.1 ×10⁻⁶ cm/s.

For `CN(Cc1cnc2nc(N)nc(N)c2n1)c1ccc(C(=O)N[C@@H](CCC(=O)O)C(=O)O)cc1` [methotrexate, reference compound], the “reported human Fa” value in series [1] is 20 [24] %. In the series “in vitro”, this compound showed a Papp of 1.1 ± 0.2 ×10⁻⁶ cm/s.

Regarding `Cc1ncc2n1-c1ccc(Cl)cc1C(c1ccccc1F)=NC2` [midazolam, reference compound], the “reported human Fa” value in series [1] was 60 [28] %. The compound also came in with a Papp in the series “in vitro” of 31.8 ± 1.9 ×10⁻⁶ cm/s.

The compound `CCCCC(CC)COC(=O)c1ccccc1C(=O)O` (centres unmarked) [mono(2-ethylhexyl) phthalate] gave a Papp in series [2] of 467 ± 18 nm/s.

In the case of `CN1CCC[C@H]1c1cccnc1` [nicotine, reference compound], the “reported human Fa” value in series [1] was 100 [8] %. In the series “in vitro”, this compound had a Papp of 5.7 ± 0.6 ×10⁻⁶ cm/s.

Turning to `CCOc1ccc(N)cc1` [p-phenetidine], the “hepatic NOEL” value in the series with liver (hepatotoxicity) (setting [3]) is given as 160 mg/kg/day. Moreover, the “observed Papp” value in series [2] came out at 58.2 ± 3.1 ×10⁻⁶ cm/s.

Turning to `Nc1cccc2c1C(=O)N(C1CCC(=O)NC1=O)C2=O` (centres unmarked) [pomalidomide, reference compound], in series [1], the “reported human Fa” value is 73 [29] %. The compound further displayed an apparent permeability (Papp) in the series “in vitro” of 46.6 ± 5.7 ×10⁻⁶ cm/s.

With `CC[C@H](C)C(=O)O[C@H]1C[C@H](O)C=C2C=C[C@H](C)[C@H](CC[C@@H](O)C[C@@H](O)CC(=O)O)[C@H]21` [pravastatin, reference compound], the “reported human Fa” value in series [1] is 13 [31] %. Further, the Papp in “in vitro” was found to be 0.9 ± 0.1 ×10⁻⁶ cm/s.

Regarding `OCCOCCN1CCN(C2=Nc3ccccc3Sc3ccccc32)CC1` [quetiapine, reference compound], the “reported human Fa” value in series [1] is 73 [30] %. This compound yielded a Papp in “in vitro” of 3.8 ± 0.4 ×10⁻⁶ cm/s.

In turn, `CN(C)C` [trimethylamine] gave a Papp in series [2] of 33 ± 1 nm/s.

With lucifer yellow [reference compound], the “reported human Fa” value in series [1] is 0 [27] %. Besides, in series [2], the apparent permeability (Papp) turned out to be 7 ± 1 nm/s.
